According to patent US20220295793A1 (priority 2019, published 2022):
Where two headings read alike, the source gives them in different places.

Columns and labels:
[1] = test system: cucumber downy mildew; details: R. Zhang, J. Pesticide Sci., vol. 39, no. 1, 2014, pages 43-47; cited from earlier work
[2] = test system: Phytophthora infestans; assay type: in vivo; details: tomatoes, preventive spray, evaluated 3 days after inoculation

For `COc1c(F)c(F)c(C(=O)NCc2ncc(C(F)(F)F)cc2Cl)c(F)c1F` [(B) fluopimomide, N-{[3-chloro-5-(trifluoromethyl)-2-pyridyl]methyl}-2,3,5,6-tetrafluoro-4-methoxybenzamide], the “controlling cucumber downy mildew” value [1] is listed as “highly effective”, the “Efficacy in % found” value ([2]; 2.5 ppm a.i.) is listed as 0% and the “Efficacy in % found” value ([2]; 5 ppm a.i.) is listed as 0%. For the same molecule, the “Efficacy in % found” value ([2]; 10 ppm a.i.) was 0%.
For `CS(=O)(=O)Oc1cccc(Cl)c1C1CC(c2csc(C3CCN(C(=O)Cn4nc(C(F)F)cc4C(F)F)CC3)n2)=NO1` (racemic) [(A) fluoxapiprolin, 2-{(5RS)-3-[2-(1-{[3,5-bis(difluoromethyl)-1H-pyrazol-1-yl]acetyl}-4-piperidyl)thiazol-4-yl]-4,5-dihydroisoxazol-5-yl}-3-chlorophenyl methanesulfonate], the “Efficacy in % found” value ([2]; 0.02 ppm a.i.) was 54% and the “Efficacy in % found” value ([2]; 0.04 ppm a.i.) was 79%.
